Assay results from patent US20250134860A1, “NOVEL COMPOUND, AND COMPOSITION FOR PREVENTING, ALLEVIATING OR TREATING BACTERIAL INFLAMMATION AND INFLAMMASOME-MEDIATED DISEASES, COMPRISING SAME AS ACTIVE INGREDIENT” (Quorum Bio Co., Ltd., priority 2022, published 2025).

Columns and labels:
[1] = test system: human monocyte cell line (THP-1); experiment: Cytotoxicity in human monocyte cell line (CCK-8); format: cell-based; settings: 0.002, 0.02, 0.2, 2 μM, 24 hours, at any concentration
Experimental: The human monocyte cell line (THP-1) was cultured in a 10% fetal bovine serum (Hyclone, Waltham, MA, USA), and a RPMI 1640 medium supplemented with 2.05 mM L-glutamate and antibiotics (100 units/ml penicillin, 100 μg/ml streptomycin), and then seeded in a 96 well microtiter plate at a concentration of 1×10^5 cells/well. The compound of Example 1-2 was diluted to a final concentration of 0.002 μM, 0.02 μM, 0.2 μM, and 2 μM, cells in each well were treated and cultured for 24 hours. Then, the cultured cells were treated with 10 μl of Cell Counting Kit-8 (CCK-8, DOJINDO, Kumamoto, Japan) solution in each well, and then the absorbance was measured at 450 nm for each time zone (1 h, 2 h, 3 h), and the results were derived based on the absorbance data from the last time zone, 3 h. At this time, the cell viability of untreated cells was set as 100% as the reference, and the cell viability of the cells treated with the sample was calculated and shown in FIG. 19.

[2] = Plasma stability in human plasma (LC-MS/MS); format: in vitro ADME; settings: 37° C., 0, 30, 60, 120, 240 minutes
Experimental: The compounds of Examples 1-2 and Comparative Example, and the substance used as the positive control (Eucatropine, Loterpresnol) were dissolved in DMSO to prepare a stock solution having a concentration of 10 mM. The stock solution of each test substance was then diluted to prepare 0.2 mM and 1 mM working solutions and used for the test (For the comparative example compound, 70% acetonitrile was used as a solvent, and for the compound of Example 1-2, 50% acetonitrile was used as a solvent).
The positive control and the standard solution of the test substance were placed in tubes containing two types of plasma (human and rat) at concentrations of 1 μM and 5 μM, respectively, and then incubated at 37° C. for a prescribed time (0, 30, 60, 120, 240 minutes) while shaking and mixing. At each time point, the mixture sample was dispensed in 100 μl increments into a cell culture plate (96-well plate) containing 400 μl of quench reagent to terminate the test, After centrifugation (5000×g, 10 min), 100 μl of the supernatant was taken out, mixed with 200 μl of ultrapure water, and the solution was then injected into a LC-MS/MS system to analyze the drug in each time zone. Thereby, the plasma stability of the compounds of Comparative Example and Example 1-2 was evaluated.

[3] = test system: E. coli (KCTC 2571 (ATCC 8739)); experiment: Inhibitory effect on E. coli biofilm formation; format: cell-based, Escherichia coli; settings: 0.006-4.8 μg/ml; 48 hours; compared with control (CT)
Experimental: The inhibitory effect of the compound of Example 1-2 on biofilm formation in E. coli (KCTC 2571 (ATCC 8739); available from the Korean Collection for Oral Microbiology (KCOM)) was confirmed.
Sterilized cover glass slips (round, 12 mm radius) were placed individually at a bottom of each well of a cell culture plate (24-well plate) using forceps, and the compound of Example 1-2 was diluted in the medium (LB medium) to be cultured with bacteria so that the final concentrations were 0.006 μg/ml, 0.06 μg/ml, 0.6 μg/ml, 1.2 μg/ml, 2.4 μg/ml, and 4.8 μg/ml.
The prepared culture medium was dispensed into a cell culture plate in which glass slips were placed, and the bacteria were inoculated to a concentration of 2×10^7 cells/ml. […]
The biofilm in which bacteria cultured for each group were formed on glass slips was stained with 1% crystal violet solution for 15 minutes, and then washed three times with PBS (phosphate buffered saline) solution, and decolorized with acetone-alcohol (20:80, vol/vol). After the decolorizing solution containing crystal violet was put in 200 μl increments in a 96-well microplate for each group, the absorbance (OD590nm) was measured using an absorbance microplate reader (Epoch2, Bio-Tek, USA), and the biofilm formation levels were compared.

P. gingivalis = experiment: Inhibitory effect on P. gingivalis biofilm formation (crystal violet, OD590nm); format: cell-based, Porphyromonas gingivalis

For `Cc1ccc(C(=C2c3ccccc3C(=O)N2C)c2ccc(C)cc2)cc1` [Example 1-2, 3-(di-p-tolylmethylene)-2-methylisoindolin-1-one], the “cytotoxicity (cell viability, CCK-8)” value [1] was “did not exhibit cytotoxicity”, the “amount of the compound remaining in the plasma” value [2] was “remained stable” and the “biofilm formation of E. coli” value [3] was “significantly suppressed in a concentration-dependent manner”. For the same compound, the “biofilm formation of P. gingivalis increased by DPD” value (P. gingivalis; DPD 10 μM + compound 0.002, 0.02, 0.2, 2 μM, 48 hours, anaerobic, OD590nm) was “inhibited in a concentration-dependent manner” and the “ability to inhibit biofilm formation of P. gingivalis at the same concentration” value (P. gingivalis; Example 1-2 against comparative example compound, 0.002-2 μM with DPD) was “better ability to inhibit biofilm formation than the comparative example compound”.
